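Five concentrations, 48 hours, 96-well plates. TGI denotes the concentration required for complete inhibition of growth.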
Key:
Assay in all cases: growth of human tumour cells (NCI), 48 h
786-0 renal = test system: 786-0 renal
A549 NSCLC = test system: A549 NSCLC
HCT-116 colon = test system: HCT-116 colon
HL-60(TB) leukemia = test system: HL-60(TB) leukemia
MALME-3M melanoma = test system: MALME-3M melanoma
NCI-H522 lung = test system: NCI-H522 lung
PC-3 prostate = test system: PC-3 prostate
SW-620 colon = test system: SW-620 colon
TK-10 renal = test system: TK-10 renal
U251 CNS = test system: U251 CNS

Compound	TGI (786-0 renal)	TGI (A549 NSCLC)	TGI (HCT-116 colon)	TGI (HL-60(TB) leukemia)	TGI (MALME-3M melanoma)	TGI (NCI-H522 lung)	TGI (PC-3 prostate)	TGI (SW-620 colon)	TGI (TK-10 renal)	TGI (U251 CNS)
CCOC(=O)C(NC(=O)c1cccc(Cl)c1)(Nc1cccc(C)c1)C(F)(F)F (stereo not given)	47 µM	> 100 µM	33.4 µM	> 100 µM	30.4 µM	20.5 µM	43.6 µM	37.2 µM	> 100 µM	79.3 µM
O=C(c1ccc([N+](=O)[O-])cc1)N1CCCC1	> 100 µM	> 100 µM	> 100 µM	> 100 µM	> 100 µM	> 100 µM	> 100 µM	> 100 µM	> 100 µM	> 100 µM
CC(=O)Oc1ccc2c(-c3ccccc3)c(Oc3ccc(Cl)cc3)c(=O)oc2c1	30 µM	27.6 µM	28 µM	> 100 µM	28.9 µM	9.51 µM	37.7 µM	39.4 µM	26.3 µM	16.3 µM
CCOC(=O)N1CCN(c2c(N)nc(C)[nH]c2=O)CC1	> 100 µM	> 100 µM	> 100 µM	> 100 µM	> 100 µM	> 100 µM	> 100 µM	> 100 µM	> 100 µM	> 100 µM
CN1C2=Nc3n(c4ccccc4[n+]3C)CN2c2ccccc21	> 100 µM	> 100 µM	> 100 µM	> 100 µM	18 µM	65.4 µM	> 100 µM	> 100 µM	> 100 µM	> 100 µM
CC1(C)OCC(C2OC(C)(C)OC2[C@H]2O[C@@]3(O)[C@H]4[C@H](C=CC[C@@H]42)[C@@H](OCc2ccccc2)[C@H](OCc2ccccc2)[C@H]3OCc2ccccc2)O1 (stereo not given in full)	> 100 µM	> 100 µM	> 100 µM	42.4 µM	> 100 µM	> 100 µM	> 100 µM	> 100 µM	> 100 µM	> 100 µM
CCc1nc2c(c(N(C)C)c1C(=O)OC)CCc1ccccc1-2	> 100 µM	> 100 µM	> 100 µM	9.43 µM	> 100 µM	45.6 µM	40 µM	> 100 µM	> 100 µM	> 100 µM
NC(=O)c1ccc[n+](C2=C([O-])c3ccccc3C(=O)/C2=N\S(=O)(=O)c2ccccc2)c1	32.3 µM	37.7 µM	32.4 µM	> 100 µM	20.1 µM	24.1 µM	30.2 µM	30.7 µM	> 100 µM	29 µM
NCCCCNCCCN1CCOC1=O	> 100 µM	> 100 µM	> 100 µM	> 100 µM	> 100 µM	> 100 µM	> 100 µM	> 100 µM	> 100 µM	> 100 µM
Cc1cc(-c2cc(C(C)(C)C)c(O)c(C(C)(C)C)c2)c(C)cc1-c1cc(C(C)(C)C)c(O)c(C(C)(C)C)c1	> 100 µM	> 100 µM	> 100 µM	> 100 µM	> 100 µM	> 100 µM	> 100 µM	> 100 µM	> 100 µM	> 100 µM

Reference: PubChem BioAssay (NCI)
